# Measurements from patent US8119695B2, “Compounds and methods for treating breast cancer and other diseases” (City of Hope, priority 2003, dated 2012).
# Key:
# Assay type in all cases: cell-based
# ERRγ (GAL-ERRg) = assay: MH100x4 luciferase reporter with GAL-ERRg; parameters: Reporter Activity: unit not given here; conditions: for Fold Activation / Reporter Activity: Table 3, dose 2.5 (unit not given); for Fold Activation: None 1; for Reporter Activity: None 2.2
# From the text: (§1) MH100x4 is a luciferase reporter with four copies of a GAL4 […] response element. GAL-L refers to the ligand-binding domain of the indicated receptor fused to the C-terminus of the GAL4 DNA binding domain.
# MH100x4 = MH100x4 luciferase reporter without receptor; conditions: Table 3, dose 2.5 (unit not given); for Reporter Activity: None 0.57; for Fold Activation: None 1
# From the text: as §1
# ERRα (GAL-ERRa) = assay: MH100x4 luciferase reporter with GAL-ERRa; parameters: Reporter Activity: unit not given here
# From the text: as §1
# ERRs = assay: repression / antagonism of ERRs; conditions: result in words
# ERRβ (GAL-L-ERRb) = target: T1, ERRβ (GAL-L-ERRb) (Homo sapiens, UniProt O95718); assay: MH100x4 luciferase reporter with GAL-L-ERRb; parameters: Reporter Activity: unit not given here
# T1 construct: expressed in transfected cells
# T1 sequence (O95718 208-432 limits assumed): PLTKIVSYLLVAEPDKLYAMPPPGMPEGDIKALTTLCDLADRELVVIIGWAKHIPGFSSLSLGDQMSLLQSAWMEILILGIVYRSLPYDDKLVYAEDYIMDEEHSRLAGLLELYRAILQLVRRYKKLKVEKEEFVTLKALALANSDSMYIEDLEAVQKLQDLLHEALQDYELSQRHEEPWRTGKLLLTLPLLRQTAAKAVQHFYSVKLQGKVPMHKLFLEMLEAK
# From the text: as §1
# ERα (ERa) = target: T2, ERα (ERa) (Homo sapiens, UniProt P03372); assay: ERE-TK-luc reporter with ERa, E2 100 nM; conditions: Table 6, None 3.43
# T2 construct: expressed in transfected cells
# T2 sequence (P03372 1-595): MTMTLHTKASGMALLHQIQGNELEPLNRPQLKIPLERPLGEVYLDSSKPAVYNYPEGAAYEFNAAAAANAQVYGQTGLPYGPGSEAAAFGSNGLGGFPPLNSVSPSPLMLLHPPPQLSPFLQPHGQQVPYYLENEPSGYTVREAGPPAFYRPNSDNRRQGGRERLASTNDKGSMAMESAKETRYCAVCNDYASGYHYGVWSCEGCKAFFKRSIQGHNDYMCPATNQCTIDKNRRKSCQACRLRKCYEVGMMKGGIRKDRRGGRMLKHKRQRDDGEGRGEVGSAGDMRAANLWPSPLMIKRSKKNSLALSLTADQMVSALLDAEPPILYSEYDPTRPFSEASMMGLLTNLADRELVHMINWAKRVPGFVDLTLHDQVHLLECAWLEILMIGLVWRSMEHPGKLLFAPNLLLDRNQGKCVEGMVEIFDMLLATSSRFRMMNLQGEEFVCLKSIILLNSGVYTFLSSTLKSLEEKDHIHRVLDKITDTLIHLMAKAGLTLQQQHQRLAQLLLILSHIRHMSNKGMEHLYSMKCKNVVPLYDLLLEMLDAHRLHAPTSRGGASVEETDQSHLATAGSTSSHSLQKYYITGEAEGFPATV
# ERβ (ERb) = target: T3, ERβ (ERb) (Homo sapiens, UniProt Q92731); assay: ERE-TK-luc reporter with ERb, E2 100 nM; conditions: Table 6, None 2.88
# T3 construct: expressed in transfected cells
# T3 sequence (Q92731 whole entry, species assumed): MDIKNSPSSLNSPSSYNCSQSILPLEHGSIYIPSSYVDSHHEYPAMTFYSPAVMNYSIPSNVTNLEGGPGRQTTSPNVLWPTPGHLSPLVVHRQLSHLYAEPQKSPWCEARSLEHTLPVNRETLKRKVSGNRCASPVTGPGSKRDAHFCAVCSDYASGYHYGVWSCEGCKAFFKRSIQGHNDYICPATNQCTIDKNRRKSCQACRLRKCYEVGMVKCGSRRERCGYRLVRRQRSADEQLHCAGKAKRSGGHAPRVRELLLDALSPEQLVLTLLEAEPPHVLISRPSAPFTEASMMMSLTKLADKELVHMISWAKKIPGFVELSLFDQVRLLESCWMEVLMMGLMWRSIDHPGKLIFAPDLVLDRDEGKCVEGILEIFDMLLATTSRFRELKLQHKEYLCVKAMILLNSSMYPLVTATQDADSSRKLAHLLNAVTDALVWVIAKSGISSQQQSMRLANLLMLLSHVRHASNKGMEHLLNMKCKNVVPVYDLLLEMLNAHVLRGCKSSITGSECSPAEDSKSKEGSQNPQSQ
# ERE-TK-luc = ERE-TK-luc reporter without receptor, E2 100 nM; conditions: Table 6; for Fold Activation: None 1.00; for Reporter Activity: None 1.44
# [1] = Table 3, dose 2.5 (unit not given), None 1
# [2] = Table 3, dose 2.5 (unit not given), None 8.18
# [3] = Table 3, dose 2.5 (unit not given), None 2.38
# [4] = E2 100 nM + DY 40, head 0 μM (1st)
# [5] = E2 100 nM + DY 40, head 0 μM (2nd)
compound,measurement,setting,value
Oc1ccc(C(=C(CCCl)c2ccccc2)c2ccc(O)cc2)cc1 [DY30],Fold Activation,ERRγ (GAL-ERRg),0.68
same,Reporter Activity,ERRγ (GAL-ERRg),1.5
same,Reporter Activity,MH100x4,0.56
same,Fold Activation,MH100x4,0.98
same,Fold Activation,ERRα (GAL-ERRa); [1],1.03
same,Reporter Activity,ERRα (GAL-ERRa); [2],8.46
same,repression of ERRs,ERRs,does not repress ERRs
same,Fold Activation,ERRβ (GAL-L-ERRb); [1],0.86
same,Reporter Activity,ERRβ (GAL-L-ERRb); [3],2.04
"CC(C)C(=C(c1ccc(O)cc1)c1ccc(O)cc1)c1ccccc1 [DY34, 1,1-Bis(4-hydroxyphenyl)-2-phenylbut-3-methyl-1-ene]",Fold Activation,ERRγ (GAL-ERRg),0.61
same,Reporter Activity,ERRγ (GAL-ERRg),1.35
same,Fold Activation,ERRα (GAL-ERRa); [1],1.01
same,Reporter Activity,ERRα (GAL-ERRa); [2],8.24
same,repression of ERRs,ERRs,does not repress ERRs
same,Fold Activation,ERRβ (GAL-L-ERRb); [1],0.48
same,Reporter Activity,ERRβ (GAL-L-ERRb); [3],1.15
Oc1ccc(C(=C(CCCCl)c2ccccc2)c2ccc(O)cc2)cc1 [DY31],Fold Activation,ERRγ (GAL-ERRg),0.53
same,Reporter Activity,ERRγ (GAL-ERRg),1.16
same,Reporter Activity,MH100x4,0.4
same,Fold Activation,MH100x4,0.7
same,Fold Activation,ERRα (GAL-ERRa); [1],1.06
same,Reporter Activity,ERRα (GAL-ERRa); [2],8.71
same,repression of ERRs,ERRs,does not repress ERRs
same,Fold Activation,ERRβ (GAL-L-ERRb); [1],0.74
same,Reporter Activity,ERRβ (GAL-L-ERRb); [3],1.75
CCCC(=C(c1ccc(O)cc1)c1ccc(O)cc1)c1ccccc1 [DY37],repression of ERRs,ERRs,does not repress ERRs
"CCC(=C(c1ccc(O)cc1)c1ccc(O)cc1)c1ccccc1 [DY25, 1,1-Bis(4-hydroxyphenyl)-2-phenylbut-1-ene]",repression of ERRs,ERRs,does not repress ERRs
"CC(=O)Oc1ccc(/C(=C(/c2ccccc2)C(C)C)c2ccc(OCCN(C)C)cc2)cc1 [DY40, (E,Z)-4-{1-[4-(2-dimethylamino-ethoxy)-phenyl]-3-methyl-2-phenyl-but-1-enyl}-phenyl acetate]",inhibition of the activity of ERRγ,ERRγ (GAL-ERRg),inhibit the activity
same,potency antagonizing ERRγ relative to 4-hydroxytamoxifen,ERRγ (GAL-ERRg),about 30 fold
same,Reporter Activity,ERα (ERa); E2 100 nM + DY 40 0.01 μM,5.07
same,Reporter Activity,ERα (ERa); E2 100 nM + DY 40 0.03 μM,2.42
same,Reporter Activity,ERα (ERa); E2 100 nM + DY 40 0.1 μM,1.97
same,Reporter Activity,ERα (ERa); E2 100 nM + DY 40 0.3 μM,1.32
same,Reporter Activity,ERα (ERa); [4],13.55
same,Reporter Activity,ERα (ERa); [5],8.57
same,Reporter Activity,ERβ (ERb); E2 100 nM + DY 40 0.01 μM,3.19
same,Reporter Activity,ERβ (ERb); E2 100 nM + DY 40 0.03 μM,2.36
same,Reporter Activity,ERβ (ERb); E2 100 nM + DY 40 0.1 μM,1.58
same,Reporter Activity,ERβ (ERb); E2 100 nM + DY 40 0.3 μM,1.09
same,Reporter Activity,ERβ (ERb); [4],9.37
same,Reporter Activity,ERβ (ERb); [5],6.03
same,Fold Activation,ERE-TK-luc; E2 100 nM + DY 40 0.01 μM,1.03
same,Reporter Activity,ERE-TK-luc; E2 100 nM + DY 40 0.01 μM,1.48
same,Fold Activation,ERE-TK-luc; E2 100 nM + DY 40 0.03 μM,0.85
same,Reporter Activity,ERE-TK-luc; E2 100 nM + DY 40 0.03 μM,1.22
same,Fold Activation,ERE-TK-luc; E2 100 nM + DY 40 0.1 μM,0.69
same,Reporter Activity,ERE-TK-luc; E2 100 nM + DY 40 0.1 μM,0.99
same,Fold Activation,ERE-TK-luc; E2 100 nM + DY 40 0.3 μM,0.47
same,Reporter Activity,ERE-TK-luc; E2 100 nM + DY 40 0.3 μM,0.67
same,Fold Activation,ERE-TK-luc; [4],0.90
same,Reporter Activity,ERE-TK-luc; [4],1.29
same,Fold Activation,ERE-TK-luc; [5],0.81
same,Reporter Activity,ERE-TK-luc; [5],1.17
same,Fold Activation,"ERRα (GAL-ERRa); Table 4, DY40 dose head 0 (1st of 3), None 1.23",1.24
same,Reporter Activity,"ERRα (GAL-ERRa); Table 4, DY40 dose head 0 (1st of 3), None 34.05",34.34
same,Fold Activation,"ERRα (GAL-ERRa); Table 4, DY40 dose head 0 (2nd of 3), None 1.23",1.17
same,Reporter Activity,"ERRα (GAL-ERRa); Table 4, DY40 dose head 0 (2nd of 3), None 34.05",32.4
same,Fold Activation,"ERRα (GAL-ERRa); Table 4, DY40 dose head 0 (3rd of 3), None 1.23",1.23
same,Reporter Activity,"ERRα (GAL-ERRa); Table 4, DY40 dose head 0 (3rd of 3), None 34.05",34
same,Fold Activation,"ERRα (GAL-ERRa); Table 4, dose 0.1 (unit not given), None 1/1.23",1.3
same,Reporter Activity,"ERRα (GAL-ERRa); Table 4, dose 0.1 (unit not given), None 27.7/34.05",37
same,Fold Activation,"ERRα (GAL-ERRa); Table 4, dose 0.3 (unit not given), None 1/1.23",1.47
same,Reporter Activity,"ERRα (GAL-ERRa); Table 4, dose 0.3 (unit not given), None 27.7/34.05",40.8
same,Fold Activation,"ERRα (GAL-ERRa); Table 4, dose 1 (unit not given), None 1/1.23",0.98
same,Reporter Activity,"ERRα (GAL-ERRa); Table 4, dose 1 (unit not given), None 27.7/34.05",27.3
same,Fold Activation,"ERRβ (GAL-L-ERRb); Table 4, DY40 dose head 0 (1st of 3), None 1.2",1.33
same,Reporter Activity,"ERRβ (GAL-L-ERRb); Table 4, DY40 dose head 0 (1st of 3), None 8.67",9.61
same,Fold Activation,"ERRβ (GAL-L-ERRb); Table 4, DY40 dose head 0 (2nd of 3), None 1.2",0.92
same,Reporter Activity,"ERRβ (GAL-L-ERRb); Table 4, DY40 dose head 0 (2nd of 3), None 8.67",6.61
same,Fold Activation,"ERRβ (GAL-L-ERRb); Table 4, DY40 dose head 0 (3rd of 3), None 1.2",0.7
same,Reporter Activity,"ERRβ (GAL-L-ERRb); Table 4, DY40 dose head 0 (3rd of 3), None 8.67",5.07
same,Fold Activation,"ERRβ (GAL-L-ERRb); Table 4, dose 0.1 (unit not given), None 1/1.2",0.2
same,Reporter Activity,"ERRβ (GAL-L-ERRb); Table 4, dose 0.1 (unit not given), None 7.21/8.67",1.4
same,Fold Activation,"ERRβ (GAL-L-ERRb); Table 4, dose 0.3 (unit not given), None 1/1.2",0.1
same,Reporter Activity,"ERRβ (GAL-L-ERRb); Table 4, dose 0.3 (unit not given), None 7.21/8.67",0.73
same,Fold Activation,"ERRβ (GAL-L-ERRb); Table 4, dose 1 (unit not given), None 1/1.2",0.08
same,Reporter Activity,"ERRβ (GAL-L-ERRb); Table 4, dose 1 (unit not given), None 7.21/8.67",0.59
same,potency antagonizing ERRβ relative to 4-hydroxytamoxifen,ERRβ (GAL-L-ERRb); greater than 4-hydroxytamoxifen,about 30 fold
same,inhibition of the activity of ERRβ,ERRβ (GAL-L-ERRb); result in words,inhibit the activity
